How the values were obtained:
K-Ras G12C [1] = target: T1, K-Ras G12C (Homo sapiens, UniProt P01116, G12C); assay: Western blot assay for in cell alkylation of K-Ras G12C (HCC1171 cells); assay type: cell-based; set-up: endogenous in cells; host or cells: HCC1171; details: 18 hours at 37° C., 7 point dose response
Method: Western Blot Assay for in Cell Alkylation of K-Ras G12C
HCC1171 cells were maintained in RPMI1640 supplemented with 10% FBS. Cells were plated in a 96-well plate at 20,000 cells/well and the following day compounds were added to the cells. After 18 hours at 37° C., cells were lysed in RIPA buffer (Sigma R0278) with 0.5% SDS and protease/phosphatase inhibitor cocktail. After through mixing to enable complete lysis, the lysates were cleared by centrifugation before 20 μl was transferred from each well and combined with loading buffer and reducing agent. After heating for 10 minutes at 95° C., 15 μl of each sample was loaded onto a 4-20% Tris-Glycine gel and electrophoresed at 110V for 165 minutes in SDS-PAGE running buffer. Gels were transferred to a nitrocellulose membrane, blocked for 1 hour and stained overnight at 4° C. with primary antibody against K-Ras (polyclonal Proteintech 12063-1-AP). The membrane was then washed thoroughly and counterstained with anti-rabbit IRDye 800CW (LI-COR 926-32211) for one hour at room temperature. After final washes, the membrane was imaged on a LI-COR Odyssey CLx at medium resolution. Alkylated K-Ras was visible by an electrophoretic shift from unmodified K-Ras. To quantify this affect, the LICOR software was used to draw a rectangle over alkylated and unalkylated bands for each well and measured the total fluorescent intensity (FI) in each of these bands. The following formula was then used to calculate % alkylation: FI(alkylated)/(FI(alkylated)+FI(unalkylated))*100 for each well.
A 7 point dose response curve was used to determine the IC50 for each compound. Cell alkylation data are presented below in Table 2.
Target sequence in this assay (P01116 1-188 isoform P01116-2 G12C): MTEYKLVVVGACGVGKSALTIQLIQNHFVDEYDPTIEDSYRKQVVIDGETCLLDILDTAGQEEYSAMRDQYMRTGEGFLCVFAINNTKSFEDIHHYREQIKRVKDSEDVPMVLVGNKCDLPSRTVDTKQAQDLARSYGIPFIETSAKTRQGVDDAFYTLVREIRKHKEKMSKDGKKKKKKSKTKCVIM

K-Ras G12C [2] = target: T1, K-Ras G12C; assay: K-Ras G12C, SOS1, Raf RBD HTRF assay for inhibition of GTP exchange; assay type: biochemical; set-up: K-Ras G12C (residues 2-188) and SOS1 (residues 564-1049) had N-terminal 6-His; made in house; host or cells: E. coli; details: 18 hours preincubation with K-Ras G12C at room temperature; SOS1-mediated GTP exchange
Method: K-Ras G12C, SOS1, Raf RBD Homogeneous Time Resolved Fluorescence (HTRF) Assay for Inhibition of GTP Exchange
After 18 hours at room temperature, the SOS1 GTP exchange factor (1.67 nM during exchange, 1.25 nM final) was added to initiate nucleotide exchange to GTP (200 μM during exchange, 150 μM final). The level of GTP exchange was assessed by addition of a Ras binding domain derived from C-Raf and the HTRF detection antibodies Tb-anti-FLAG and D2-anti-his (Cis-Bio) at 50 nM, 1 nM and 12.5 nM, respectively. After 2 hours, the ratio of 665 nm to 615 nm emission with 320 nm excitation was measured on an Envision plate reader (Perkin Elmer).
The final reaction volume was 20 μl in a ProxiPlate-384F Plus (Perkin Elmer), in buffer containing 20 mM HEPES, 150 mM NaCl, 1 mM MgCl2, 0.1% BSA, 0.03% Tween-20 and 1 mM DTT. […] HTRF data are presented below in Table 2.
Target sequence in this assay (P01116 2-188 isoform P01116-2 G12C): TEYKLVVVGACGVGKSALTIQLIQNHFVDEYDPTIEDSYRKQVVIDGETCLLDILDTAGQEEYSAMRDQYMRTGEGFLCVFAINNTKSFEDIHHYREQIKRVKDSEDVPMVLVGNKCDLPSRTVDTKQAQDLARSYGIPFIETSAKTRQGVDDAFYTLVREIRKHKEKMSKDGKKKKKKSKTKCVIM

Compound	EC50 (K-Ras G12C [1])	IC50 (K-Ras G12C [2])
C=CC(=O)N1CCN(c2ncnc3c2CC[C@H](c2cncc4ccccc24)C3)CC1 (single isomer, unassigned) [Example 44b]	1000 nM	8700 nM
C=CC(=O)N1CCN(c2ncnc3c2CC[C@@H](c2nc(N)cc4ccccc24)C3)CC1 (single isomer, unassigned) [Example 3a]	30000 nM	> 50000 nM
C=CC(=O)N1CCN(c2nc(OC[C@@H]3CCCN3C)nc3c2C[C@H](C)[C@@H](c2cc(O)cc4ccccc24)C3)[C@@H](C)C1 (single isomer, unassigned) [Example 22a]	100 nM	20 nM
C=CC(=O)N1CCN(c2ncnc3c2C[C@@H](C)[C@H](c2cc(CO)ccc2C)C3)CC1 (single isomer, unassigned) [Example 4b]	1300 nM	390 nM
C=C(F)C(=O)N1CCN(c2nc(OC[C@@H]3CCCN3C)nc3c2C[C@H](C)[C@@H](c2c(F)c(N)cc(C)c2C(F)(F)F)C3)C[C@H]1CC#N (single isomer, unassigned) [Example 34b]	1200 nM	680 nM
C=CC(=O)N1CCN(c2nc(OC[C@@H]3CCCN3C)nc3c2CCC(c2cc(O)cc4ccccc24)C3)[C@@H](CO)C1 (single isomer, unassigned) [Example 29a]	9300 nM	530 nM
C=CC(=O)N1CCN(c2ncnc3c2C[C@H](C)[C@H](c2nc(N)cc(C)c2C(F)(F)F)C3)CC1 (single isomer, unassigned) [Example 1b]	10000 nM	> 50000 nM
C=C(F)C(=O)N1CCN(c2nc(OC[C@@H]3C[C@@H](F)CN3C)nc3c2C[C@H](C)[C@@H](c2c(F)c(N)cc(C)c2C(F)(F)F)C3)C[C@H]1CC#N (single isomer, unassigned) [Example 38a]	1000 nM	3600 nM
C=C(F)C(=O)N1CCN(c2nc(OC[C@@H]3CCCN3C)nc3c2CCC(c2cccc4ccccc24)C3)CC1CC#N (single isomer, unassigned) [Example 47a]	530 nM	150 nM
C=CC(=O)N1CCN(c2nc(OC[C@@H]3CCCN3C)nc3c2CC(C)C(c2c(C)ccc4[nH]ncc24)C3)CC1 (stereo partly drawn) [Example 18a, 1-(4-(6-methyl-7-(5-methyl-1H-indazol-4-yl)-2-(((S)-1-methylpyrrolidin-2-yl)methoxy)-5,6,7,8-tetrahydroquinazolin-4-yl)piperazin-1-yl)prop-2-en-1-one]	280 nM	24 nM
C=CC(=O)N1C[C@H](C)N(c2nc(OC[C@@H]3CCCN3C)nc3c2C[C@@H](C)[C@H](c2cc(O)cc4ccccc24)C3)[C@@H](C)C1 (single isomer, unassigned) [Example 32a]	120 nM	< 10 nM
CN1CCC[C@H]1COc1nc2c(c(N3CCN(C(=O)/C=C/CF)[C@H](CC#N)C3)n1)CCC(c1cc(O)cc3ccccc13)C2 (single isomer, unassigned) [Example 62d]	6.4 nM	< 10 nM
C=CC(=O)N1CCN(c2ncnc3c2CC[C@H](c2c(C)c(C)cc4[nH]cnc24)C3)CC1 (single isomer, unassigned) [Example 10b]	1000 nM	270 nM
C=CC(=O)N1CCN(c2nc(OC[C@@H]3CCCN3C)nc3c2C[C@H](C)[C@@H](c2c(C(F)(F)F)ccc(N)c2F)C3)[C@@H](C)C1 (single isomer, unassigned) [Example 23a]	1000 nM	720 nM
C=CC(=O)N1CCN(c2nc(OC[C@@H]3CCCN3C)nc3c2CCC(c2cc(O)cc4ccccc24)C3)[C@@H](CO)C1 (single isomer, unassigned) [Example 29b]	330 nM	< 10 nM
C=CC(=O)N1CCN(c2nc(OC[C@@H]3C[C@H](F)CN3C)nc3c2CC[C@H](c2cc(O)cc4ccccc24)C3)[C@@H](C)C1 (single isomer, unassigned) [Example 30a]	40 nM	11 nM
C=CC(=O)N1CCN(c2nc(OC[C@@H]3CCCN3C)nc3c2C[C@H](C)[C@@H](c2c(F)c(N)cc(C)c2C(F)(F)F)C3)[C@@H](C)C1 (single isomer, unassigned) [Example 12a]	1100 nM	610 nM
C=CC(=O)N1CCN(c2nc(OC[C@@H]3C[C@@H](F)CN3C)nc3c2C[C@H](C)[C@@H](c2c(F)c(N)cc(C)c2C(F)(F)F)C3)[C@@H](C)C1 (single isomer, unassigned) [Example 36a]	270 nM	360 nM
C=CC(=O)N1CCN(c2nc(OC[C@@H]3CCCN3C)nc3c2CCC(c2cc(O)cc4ccccc24)C3)CC1CC#N (stereo partly drawn) [Example 58a, 2-(1-acryloyl-4-(7-(3-hydroxynaphthalen-1-yl)-2-(((S)-1-methylpyrrolidin-2-yl)methoxy)-5,6,7,8-tetrahydroquinazolin-4-yl)piperazin-2-yl)acetonitrile]	10 nM	28 nM
C=CC(=O)N1CCN(c2nc(OC[C@@H]3CCCN3C)nc3c2CC[C@@H](c2cc(O)cc4ccccc24)C3)[C@@H](C)C1 (single isomer, unassigned) [Example 28a]	1000 nM	130 nM
C=CC(=O)N1CCN(c2ncnc3c2C[C@@H](C)[C@H](c2nc(N)ccc2C(F)(F)F)C3)CC1 (single isomer, unassigned) [Example 42b]	360 nM	67 nM
C=CC(=O)N1CCN(c2nc(OC[C@@H]3CCCN3C)nc3c2CC[C@H](c2cc(O)cc4ccccc24)C3)C[C@@H]1CC#N (single isomer, unassigned) [Example 58b]	1900 nM	130 nM
C=C(F)C(=O)N1CCN(c2nc(OC[C@@H]3CCCN3C)nc3c2CCC(c2cc(O)cc4ccccc24)C3)CC1CC#N (mixture of isomers) [Example 61a, 2-(1-(2-fluoroacryloyl)-4-(7-(3-hydroxynaphthalen-1-yl)-2-(((S)-1-methylpyrrolidin-2-yl)methoxy)-5,6,7,8-tetrahydroquinazolin-4-yl)piperazin-2-yl)acetonitrile]	16 nM	38 nM
C=CC(=O)N1C[C@H](C)N(c2nc(OC[C@@H]3CCCN3C)nc3c2CCC(c2cc(O)cc4ccccc24)C3)[C@@H](C)C1 (stereo partly drawn) [Example 56a, 1-((3S,5S)-4-(7-(3-hydroxynaphthalen-1-yl)-2-(((S)-1-methylpyrrolidin-2-yl)methoxy)-5,6,7,8-tetrahydroquinazolin-4-yl)-3,5-dimethylpiperazin-1-yl)prop-2-en-1-one]	620 nM	73 nM
C=CC(=O)N1C[C@H](C)N(c2nc(OC[C@@H]3CCCN3C)nc3c2C[C@H](C)[C@@H](c2cc(O)cc4ccccc24)C3)[C@@H](C)C1 (single isomer, unassigned) [Example 32b]	920 nM	56 nM
C=CC(=O)N1CCN(c2nc(OC[C@@H]3CCCN3C)nc3c2CC[C@@H](c2cc(O)cc4ccccc24)C3)C[C@@H]1CC#N (single isomer, unassigned) [Example 58d]	6.3 nM	24 nM
C=CC(=O)N1CCN(c2ncnc3c2CC[C@H](c2nc(N)cc(C)c2C(F)(F)F)C3)CC1 [Example 26a, (S)-1-(4-(7-(6-amino-4-methyl-3-(trifluoromethyl)pyridin-2-yl)-5,6,7,8-tetrahydroquinazolin-4-yl)piperazin-1-yl)prop-2-en-1-one]	1200 nM	180 nM
C=CC(=O)N1CCN(c2ncnc3c2CC[C@@H](c2cncc4ccccc24)C3)CC1 (single isomer, unassigned) [Example 44a]	1000 nM	> 50000 nM
CN1CCC[C@H]1COc1nc2c(c(N3CCN(C(=O)/C=C/CF)[C@@H](CC#N)C3)n1)CC[C@@H](c1cc(O)cc3ccccc13)C2 (single isomer, unassigned) [Example 62e]	450 nM	660 nM
C=CC(=O)N1CCN(c2ncnc3c2C[C@@H](C)[C@H](c2c(C)ccc4[nH]ncc24)C3)CC1 (single isomer, unassigned) [Example 15a]	430 nM	68 nM
